Patent US20100204134A1, “USE OF THE PEPTIDE HIS-SER-LEU-GLY-LYS-TRP-LEU-GLY-HIS-PRO-ASP-LYS-PHE ALONE OR IN COMBINATION WITH THE PEPTIDE GLY-ARD-GLY-ASP-ASN-PRO-OH AS A THERAPEUTIC AGENT” (priority 2007, published 2010)
No end group written: not given here.

Experiments:
HIV-1IIIB = assay: HIV-1 antiviral assay in CEM-SS cells; assay type: cell-based
Streptococcus pneumoniae = Streptococcus pneumoniae assay; conditions: 10 micrograms per ml; 5×10^5 CFU/mL
murine spleen cells = assay: Th1/Th2 cytokine profiling assay; conditions: 10 micrograms per ml; Ovalbumin restimulation; 72 hours
From the text: The Balb/c mice (originated in 1923, it is a popular strain and is used in many different research disciplines. Also classified as an inbred from the production of 20 or more successive brother-sister matings, the Balb/c mouse is albino and small in size) were immunized on Days 1, 15, and 29 with Ovalbumin (Ovalbumin is the main protein found in egg white, commonly used to stimulate an immunological reaction in test animals) in PBS (5 micrograms/injection). On day 50, spleens of the mice were harvested (3 weeks after last boost with Ovalbumin). […] Thereafter, additional Ovalbumin was added to the cells at 10 micrograms/ml for in vitro restimulation of the cells. 72 hours later, cell supernatants were harvested and assayed using the Becton Dickinson Mouse Th1/Th2 Cytokine CBA Kit. This kit can be used to measure Interleukin-2 (IL-2), Interleukin-4 (IL-4), Interleukin-5 (IL-5), Interferon-γ (IFN-γ), and Tumor Necrosis Factor-α (TNF-α) protein levels in a single sample.

HUVEC = assay: Endothelial tube formation assay; conditions: 10 micrograms per ml; 20 hours
Method: The endothelial tube formation assay is based on the ability of endothelial cells to form three-dimensional capillary-like tubular structures when cultured on a gel of basement membrane extract. […] Pre-labeled HUVEC with Calcein AM were seeded in a 96-well culture plate coated with extracellular metrix (Chemicon international Cat. ECM625) and treated with test peptides—10 micrograms per ml—in full growth medium. Positive control was vehicle only. The endothelial cells were allowed to form tubes for 20 hours and were then examined under an inverted fluorescent microscope. Duplicate wells for each treatment were photographed and quantitatively analyzed for an average tubule length using image analysis software ImageProPlus. Raw data were expressed as average tubule lengths in pixels ±standard deviation. Statistic p values were computed using the Student's t-test.

HCMV strain AD169 = assay: HCMV plaque formation assay; conditions: MRC-5 cells; for inhibition of HCMV plaque formation as compared to the virus control: 10 micrograms per ml, 7-10 days
[1] = tested on: Primary Human endothelial cells (HUVEC); assay: Endothelial cell migration assay; assay type: cell-based; conditions: 10 micrograms per ml; 22 hours
Method: Primary Human endothelial cells (HUVEC) were seeded in insert chambers with 3 micrometer pore size of multi-transwell plate for 6 hours at 37° C. in Endothelial Cell Basal Medium (EBM) supplemented with 0.1% bovine serum albumin. Thereafter, designated concentration of test peptides—10 micrograms per ml—was added in duplicate wells. The endothelia were allowed to migrate for 22 hours at 37° C., then, migrated cells were fixed and stained with Hoechst 33342 dye. Images of 3 fields per insert were taken and the number of migrated cells per field were quantified using the ImageProPlus software. Data were analyzed for the average number of the migrated cells and standard deviation of six data points for each treatment condition. […] Statistic p values were computed using the Student's t-test.

[2] = tested on: hepatitis B virus (HBV) ayw strain; assay: HBV experimental assay system (secreted HBV DNA, TaqMan PCR); assay type: cell-based; conditions: 10 micrograms per ml; HepG2-2.2.15; six days; HBV DNA in supernatant

| Molecule | antiviral activity of positive control compounds (HIV-1IIIB) | inhibition of the growth of Streptococcus pneumoniae (Streptococcus pneumoniae) [%] | change of the production of IFN-γ (murine spleen cells) | change of the production of IL-5 (murine spleen cells) | induction of the production of IL-2 (murine spleen cells) [%] | induction of the production of IL-4 (murine spleen cells) [%] | induction of the production of TNF-alpha (murine spleen cells) [%] | inhibition of HCMV plaque formation as compared to the virus control (HCMV strain AD169) | also measured |
| --- | --- | --- | --- | --- | --- | --- | --- | --- | --- |
| Cc1cn([C@H]2C[C@H](N=[N+]=[N-])[C@@H](CO)O2)c(=O)[nH]c1=O [AZT] | expected levels of antiviral activity |  |  |  |  |  |  |  |  |
| His-Ser-Leu-Gly-Lys-Trp-Leu-Gly-His-Pro-Asp-Lys-Phe (HSLGKWLGHPDKF; printed: His-Ser-Leu-Gly-Lys-Trp-Leu-Gly-His-Pro-Asp-Lys-Phe) [Peptide 1] |  | 100 | did not significantly change | did not significantly change | 106.5 | 117.8 | 21.2 | did not inhibit | inhibition of the tube formation of human endothelial cells (HUVEC): 10%; inhibition of the migration of human endothelial cells [1]: 12% |
| Nc1nc(O)c2ncn(COC(CO)CO)c2n1 [Ganciclovir, reference compound] |  |  |  |  |  |  |  |  | antiviral activity of positive control compound (HCMV strain AD169; positive control, HCMV): expected levels of antiviral activity |
| Gly-Arg-Gly-Asp-Asn-Pro-OH (GRGDNP-OH) [Peptide 2] |  | 100 | did not significantly change | did not significantly change | 58.8 | 55.6 | 23.7 | did not inhibit | inhibition of HBV replication as compared to the virus control infection [2]: 36.4%; increase of the tube formation of endothelial cells (HUVEC): 6% |
| CC(C)(C)NC(=O)[C@@H]1CN(Cc2cccnc2)CCN1C[C@@H](O)C[C@@H](Cc1ccccc1)C(=O)N[C@H]1c2ccccc2C[C@H]1O [indinavir] | expected levels of antiviral activity |  |  |  |  |  |  |  |  |
